How the values were obtained:
[1] = target: T1, Solute carrier organic anion transporter family member 1B1 (Homo sapiens, UniProt Q9Y6L6); test: (§1) TP_TRANSPORTER: inhibition of UCB uptake (UCB: 10 uM) by Estradiol-17beta-D-glucuronide at a concentration of 100 u M in Xenopus laevis oocytes; assay type: functional, cell-based; details: oocyte, 100 µM
T1 sequence (Q9Y6L6 whole entry): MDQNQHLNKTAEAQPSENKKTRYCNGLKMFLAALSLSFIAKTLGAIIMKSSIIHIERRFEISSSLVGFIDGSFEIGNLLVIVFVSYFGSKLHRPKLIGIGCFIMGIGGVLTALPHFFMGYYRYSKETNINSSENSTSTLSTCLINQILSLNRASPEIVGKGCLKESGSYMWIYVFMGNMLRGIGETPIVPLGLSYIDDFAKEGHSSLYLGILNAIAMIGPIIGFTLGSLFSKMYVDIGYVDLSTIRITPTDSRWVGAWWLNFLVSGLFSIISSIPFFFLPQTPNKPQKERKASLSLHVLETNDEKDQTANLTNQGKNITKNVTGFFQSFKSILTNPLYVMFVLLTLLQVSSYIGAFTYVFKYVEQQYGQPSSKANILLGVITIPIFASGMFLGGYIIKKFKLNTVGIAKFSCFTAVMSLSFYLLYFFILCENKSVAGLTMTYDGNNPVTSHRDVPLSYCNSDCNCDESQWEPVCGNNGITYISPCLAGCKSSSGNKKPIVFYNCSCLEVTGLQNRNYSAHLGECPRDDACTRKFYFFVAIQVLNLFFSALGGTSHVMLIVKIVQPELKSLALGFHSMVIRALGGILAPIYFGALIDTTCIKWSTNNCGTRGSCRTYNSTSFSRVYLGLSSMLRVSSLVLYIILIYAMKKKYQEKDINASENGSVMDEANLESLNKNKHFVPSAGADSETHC

[2] = target: T2, Solute carrier organic anion transporter family member 1A2 (Homo sapiens, UniProt P46721); test: as §1; assay type: functional, cell-based; details: oocyte, 100 µM
T2 sequence (P46721 whole entry): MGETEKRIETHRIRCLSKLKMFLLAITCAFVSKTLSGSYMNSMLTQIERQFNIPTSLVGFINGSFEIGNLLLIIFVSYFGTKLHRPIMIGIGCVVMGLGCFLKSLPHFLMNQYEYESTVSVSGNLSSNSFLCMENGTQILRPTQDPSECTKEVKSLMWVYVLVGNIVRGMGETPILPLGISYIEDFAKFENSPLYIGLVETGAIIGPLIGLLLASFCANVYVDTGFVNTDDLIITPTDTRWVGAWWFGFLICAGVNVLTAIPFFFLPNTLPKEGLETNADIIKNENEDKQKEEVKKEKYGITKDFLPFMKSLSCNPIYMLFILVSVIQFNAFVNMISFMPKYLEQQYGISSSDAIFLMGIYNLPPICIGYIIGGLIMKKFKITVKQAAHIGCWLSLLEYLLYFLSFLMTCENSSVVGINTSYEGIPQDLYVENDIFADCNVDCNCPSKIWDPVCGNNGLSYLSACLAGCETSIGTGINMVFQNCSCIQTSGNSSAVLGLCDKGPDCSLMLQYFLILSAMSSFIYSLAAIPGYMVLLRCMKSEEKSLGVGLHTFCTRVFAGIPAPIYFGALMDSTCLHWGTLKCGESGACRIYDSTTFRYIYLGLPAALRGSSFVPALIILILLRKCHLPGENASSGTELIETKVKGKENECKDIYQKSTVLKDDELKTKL

[3] = target: T3, Solute carrier organic anion transporter family member 1B3 (Homo sapiens, UniProt Q9NPD5); test: as §1; assay type: functional, cell-based; details: oocyte, 100 µM
T3 sequence (Q9NPD5 whole entry): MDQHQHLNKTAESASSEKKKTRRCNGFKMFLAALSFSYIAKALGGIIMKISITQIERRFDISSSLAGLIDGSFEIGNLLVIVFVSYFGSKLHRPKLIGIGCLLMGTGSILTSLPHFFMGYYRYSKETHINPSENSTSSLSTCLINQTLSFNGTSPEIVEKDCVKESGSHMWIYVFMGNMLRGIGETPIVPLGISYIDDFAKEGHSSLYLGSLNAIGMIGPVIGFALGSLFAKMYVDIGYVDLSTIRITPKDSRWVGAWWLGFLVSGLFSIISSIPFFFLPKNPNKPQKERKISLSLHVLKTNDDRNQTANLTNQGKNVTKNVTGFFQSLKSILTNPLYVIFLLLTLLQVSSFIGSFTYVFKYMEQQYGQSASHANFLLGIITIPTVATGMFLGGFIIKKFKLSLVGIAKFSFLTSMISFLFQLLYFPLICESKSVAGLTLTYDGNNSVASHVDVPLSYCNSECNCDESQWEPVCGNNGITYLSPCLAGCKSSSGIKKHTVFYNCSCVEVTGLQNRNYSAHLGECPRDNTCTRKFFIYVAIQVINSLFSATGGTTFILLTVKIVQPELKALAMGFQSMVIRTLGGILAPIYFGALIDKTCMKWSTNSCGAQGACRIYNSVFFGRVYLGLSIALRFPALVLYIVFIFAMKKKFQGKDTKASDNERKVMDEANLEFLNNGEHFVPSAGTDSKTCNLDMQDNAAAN

[4] = target: T1, Solute carrier organic anion transporter family member 1B1; test: (§2) TP_TRANSPORTER: inhibition of E217betaG uptake (E217betaG: 10 uM) by Bilirubin at a concentration of 100 u M in Xenopus laevis oocytes; assay type: functional, cell-based; details: oocyte, 100 µM
[5] = target: T2, Solute carrier organic anion transporter family member 1A2; test: as §2; assay type: functional, cell-based; details: oocyte, 100 µM
[6] = target: T3, Solute carrier organic anion transporter family member 1B3; test: as §2; assay type: functional, cell-based; details: oocyte, 100 µM
[7] = target: T4, Solute carrier organic anion transporter family member 1B3 (OATP1B3) (Homo sapiens, UniProt Q9NPD5); test: (§3) TP_TRANSPORTER: uptake in Xenopus laevis oocytes; assay type: functional, cell-based, Oocyte; details: Xenopus laevis oocytes expressing OATP1B3 (SLCO1B3)
T4 sequence (Q9NPD5 whole entry): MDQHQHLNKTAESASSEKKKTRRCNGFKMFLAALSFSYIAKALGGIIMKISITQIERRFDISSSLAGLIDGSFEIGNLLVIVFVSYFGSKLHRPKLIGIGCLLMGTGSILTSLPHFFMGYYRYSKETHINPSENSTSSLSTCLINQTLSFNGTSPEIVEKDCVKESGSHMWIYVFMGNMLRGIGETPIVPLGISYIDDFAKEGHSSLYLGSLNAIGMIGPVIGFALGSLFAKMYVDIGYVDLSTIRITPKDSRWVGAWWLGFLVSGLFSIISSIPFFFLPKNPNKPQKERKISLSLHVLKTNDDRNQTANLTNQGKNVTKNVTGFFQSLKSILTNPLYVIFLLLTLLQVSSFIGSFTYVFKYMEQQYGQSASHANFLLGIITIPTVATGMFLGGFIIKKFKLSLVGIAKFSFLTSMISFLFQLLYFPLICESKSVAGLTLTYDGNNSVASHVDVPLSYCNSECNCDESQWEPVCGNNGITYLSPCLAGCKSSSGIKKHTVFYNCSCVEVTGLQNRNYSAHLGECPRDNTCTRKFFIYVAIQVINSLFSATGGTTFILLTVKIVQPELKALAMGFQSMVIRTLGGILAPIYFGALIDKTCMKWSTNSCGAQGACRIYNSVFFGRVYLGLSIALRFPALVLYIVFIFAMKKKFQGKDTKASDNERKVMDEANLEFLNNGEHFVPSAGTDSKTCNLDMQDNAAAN

[8] = substrate: C=CC1=C(C)/C(=C/c2[nH]c(Cc3[nH]c(/C=C4\NC(=O)C(C)=C4C=C)c(C)c3CCC(=O)O)c(CCC(=O)O)c2C)NC1=O; test: as §3; assay type: functional, cell-based, Oocyte

For `C[C@]12CC[C@@H]3c4ccc(O)cc4CC[C@H]3[C@@H]1CC[C@@H]2O[C@@H]1O[C@H](C(=O)O)[C@@H](O)[C@H](O)[C@H]1O` [ESTRADIOL 17B GLUCURONIDE], the Activity [1] was “inhibitor [+]”, the Activity [2] was “inhibitor [+]” and the Activity [3] was “inhibitor [+]”.

In the case of `C=CC1=C(C)/C(=C/c2[nH]c(Cc3[nH]c(/C=C4\NC(=O)C(C)=C4C=C)c(C)c3CCC(=O)O)c(CCC(=O)O)c2C)NC1=O` [BILIRUBIN], the Activity [4] is reported as “inhibitor [+]”, the Activity [5] is reported as “inhibitor [+]” and the Activity [6] is reported as “inhibitor [+]”. For the same molecule, the Km [7] was 0.0391 µM.

B1: Solute carrier organic anion transporter family member 1B1 (Homo sapiens) (protein)
chain: MDQNQHLNKTAEAQPSENKKTRYCNGLKMFLAALSLSFIAKTLGAIIMKSSIIHIERRFEISSSLVGFIDGSFEIGNLLVIVFVSYFGSKLHRPKLIGIGCFIMGIGGVLTALPHFFMGYYRYSKETNINSSENSTSTLSTCLINQILSLNRASPEIVGKGCLKESGSYMWIYVFMGNMLRGIGETPIVPLGLSYIDDFAKEGHSSLYLGILNAIAMIGPIIGFTLGSLFSKMYVDIGYVDLSTIRITPTDSRWVGAWWLNFLVSGLFSIISSIPFFFLPQTPNKPQKERKASLSLHVLETNDEKDQTANLTNQGKNITKNVTGFFQSFKSILTNPLYVMFVLLTLLQVSSYIGAFTYVFKYVEQQYGQPSSKANILLGVITIPIFASGMFLGGYIIKKFKLNTVGIAKFSCFTAVMSLSFYLLYFFILCENKSVAGLTMTYDGNNPVTSHRDVPLSYCNSDCNCDESQWEPVCGNNGITYISPCLAGCKSSSGNKKPIVFYNCSCLEVTGLQNRNYSAHLGECPRDDACTRKFYFFVAIQVLNLFFSALGGTSHVMLIVKIVQPELKSLALGFHSMVIRALGGILAPIYFGALIDTTCIKWSTNNCGTRGSCRTYNSTSFSRVYLGLSSMLRVSSLVLYIILIYAMKKKYQEKDINASENGSVMDEANLESLNKNKHFVPSAGADSETHC
Molecule B1 has a Km [8] of 0.0076 µM.
